{
  "source": "patent US7968542B2",
  "about": "“Thiophene compounds and thrombopoietin receptor activators” (Nissan Chemical Industries, Ltd., priority 2005, dated 2011)",
  "data": [
    {"system": "Human bone marrow CD34+ cells", "experiment": "Megakaryocyte colony stimulating activity (megakaryocyte colony forming method)", "type": "cell-based", "conditions": "drug concentration 0.1 μg/mL, 11 days", "experimental": "(§1) The action of the compounds of Synthetic Examples 1 to 43 of the present invention and Reference Synthetic Examples 29 and 30 on the proliferation, differentiation and maturation of megakaryocyte cells was measured by the megakaryocyte colony forming method using human bone marrow cells. Human bone marrow CD34^+ cells (Cambrex Bio Science Walkersville) were incubated on 2-well chamber slide for 11 days in a CO2 incubator (5% CO2, 37° C.) using MegaCult™-C (StemCell Technologies) containing 0.1% (v/v) of the compounds of Synthetic Examples dissolved in dimethyl sulfoxide. After dehydration and fixation, the cells were stained with an anti-glycoprotein IIb/IIIa antibody in accordance with the instruction by the manufacturer. The colonies consisting of at least 8 stained megakaryocyte cells in each well were counted under a microscope. The megakaryocyte colony counts in at least 2 wells were averaged.", "values": [
      {"smiles": "CC(=NNC(=O)c1ccc(C(=O)NCc2cnc(C)cn2)s1)c1csc(-c2ccc(Cl)c(Cl)c2)c1O", "note": "[Synthetic Ex. 34, 5-{1-[5-(3,4-dichlorophenyl)-4-hydroxythiophen-3-yl]ethylidenehydrazinocarbonyl}thiophene-2-carboxylic acid (5-methylpyrazin-2-ylmethyl)amide]", "Megakaryocyte colony count": 50},
      {"smiles": "CC(=NNC(=O)c1ccc(C(=O)NCc2ccno2)s1)c1csc(-c2ccc(Cl)c(Cl)c2)c1O", "note": "[Synthetic Ex. 35, 5-{1-[5-(3,4-dichlorophenyl)-4-hydroxythiophen-3-yl]ethylidenehydrazinocarbonyl}thiophene-2-carboxylic acid (isoxazol-5-ylmethyl)amide]", "Megakaryocyte colony count": 135},
      {"smiles": "COc1cc(CNC(=O)c2ccc(C(=O)NN=C(C)c3csc(-c4ccc(Cl)c(Cl)c4)c3O)s2)on1", "note": "[Synthetic Ex. 36, 5-{1-[5-(3,4-dichlorophenyl)-4-hydroxythiophen-3-yl]ethylidenehydrazinocarbonyl}thiophene-2-carboxylic acid (3-methoxyisoxazol-5-ylmethyl)amide]", "Megakaryocyte colony count": 102},
      {"smiles": "CC(=NNC(=O)c1ccc(C(=O)NCc2cc(C)n(C)n2)s1)c1csc(-c2ccc(Cl)c(Cl)c2)c1O", "note": "[Synthetic Ex. 37, 5-{1-[5-(3,4-dichlorophenyl)-4-hydroxythiophen-3-yl]ethylidenehydrazinocarbonyl}thiophene-2-carboxylic acid (1,5-dimethyl-1H-pyrazol-3-ylmethyl)amide]", "Megakaryocyte colony count": 81},
      {"smiles": "CC(=NNC(=O)c1ccc(C(=O)NCc2cnccn2)s1)c1csc(-c2ccc(Cl)c(Cl)c2)c1O", "note": "[Synthetic Ex. 38, 5-{1-[5-(3,4-dichlorophenyl)-4-hydroxythiophen-3-yl]ethylidenehydrazinocarbonyl}thiophene-2-carboxylic acid (pyrazin-2-ylmethyl)amide]", "Megakaryocyte colony count": 66},
      {"smiles": "CC(=NNC(=O)c1ccc(C(=O)NCc2cc[n+]([O-])cc2)s1)c1csc(-c2ccc(Cl)c(Cl)c2)c1O", "note": "[Synthetic Ex. 39, 4-[{5-(2-[1-{5-(3,4-dichlorophenyl)-4-hydroxythiophen-3-yl}ethylidene]hydrazinocarbonyl)thiophene-2-carboxamido}methyl]pyridine 1-oxide]", "Megakaryocyte colony count": 86},
      {"smiles": "CC(=NNC(=O)c1ccc(C(=O)NCCCc2ccncc2)s1)c1csc(-c2ccc(Cl)c(Cl)c2)c1O", "note": "[Synthetic Ex. 40, 5-{1-[5-(3,4-dichlorophenyl)-4-hydroxythiophen-3-yl]ethylidenehydrazinocarbonyl}thiophene-2-carboxylic acid 3-(pyridin-4-yl)propylamide]", "Megakaryocyte colony count": 70},
      {"smiles": "CC(=NNC(=O)c1ccc(C(=O)NCc2cncn2C)s1)c1csc(-c2ccc(C(F)(F)F)cc2)c1O", "note": "[Synthetic Ex. 41, 5-{1-[5-(4-trifluoromethylphenyl)-4-hydroxythiophen-3-yl]ethylidenehydrazinocarbonyl}thiophene-2-carboxylic acid (1-methyl-1H-imidazol-5-ylmethyl)amide]", "Megakaryocyte colony count": 41},
      {"smiles": "CC(=NNC(=O)c1ccc(C(=O)N2CCC(O)C2)s1)c1csc(-c2ccc(Cl)c(Cl)c2)c1O", "note": "(stereo not drawn) [Synthetic Ex. 42, 5-(3-hydroxypyrrolidine-1-carbonyl)thiophene-2-carboxylic acid {1-[5-(3,4-dichlorophenyl)-4-hydroxythiophen-3-yl]ethylidene}hydrazide]", "Megakaryocyte colony count": 90},
      {"smiles": "CC(=NNC(=O)c1ccc(C(=O)N2CCC(O)C2)s1)c1csc(-c2ccc(C(F)(F)F)cc2)c1O", "note": "(stereo not drawn) [Synthetic Ex. 43, 5-(3-hydroxypyrrolidine-1-carbonyl)thiophene-2-carboxylic acid {1-[5-(4-trifluoromethylphenyl)-4-hydroxythiophen-3-yl]ethylidene}hydrazide]", "Megakaryocyte colony count": 109}
    ]},
    {"system": "Human bone marrow CD34+ cells", "experiment": "Megakaryocyte colony stimulating activity (megakaryocyte colony forming method)", "type": "cell-based", "conditions": "drug concentration 1 μg/mL, 11 days", "experimental": "as §1", "values": [
      {"smiles": "CC(=NNC(=O)c1ccc(C(=O)NCc2ccno2)s1)c1csc(-c2ccc(Cl)c(Cl)c2)c1O", "note": "[Synthetic Ex. 35, 5-{1-[5-(3,4-dichlorophenyl)-4-hydroxythiophen-3-yl]ethylidenehydrazinocarbonyl}thiophene-2-carboxylic acid (isoxazol-5-ylmethyl)amide]", "Megakaryocyte colony count": 153},
      {"smiles": "COc1cc(CNC(=O)c2ccc(C(=O)NN=C(C)c3csc(-c4ccc(Cl)c(Cl)c4)c3O)s2)on1", "note": "[Synthetic Ex. 36, 5-{1-[5-(3,4-dichlorophenyl)-4-hydroxythiophen-3-yl]ethylidenehydrazinocarbonyl}thiophene-2-carboxylic acid (3-methoxyisoxazol-5-ylmethyl)amide]", "Megakaryocyte colony count": 135}
    ]}
  ]
}
